{
  "source": "patent US10662153B2",
  "about": "(The University of Toledo, priority 2016, dated 2020)",
  "key": {"[1]": {"format": "physicochemical", "description": "(§1) This was to help increase the solubility of bilirubin in solution. […] Bilirubin was purchased commercially from Frontier Scientific."}, "PPARα OE 3T3-L1 cells": {"tested_on": "PPARα OE 3T3-L1 cells", "assay": "Endogenous PPARα gene regulatory activity in 3T3-L1 cells (Real-time PCR)", "format": "cell-based, mouse", "settings": "50 μM, 24 hours, dialyzed fatty acid-free media", "procedure": "(§2) (FIG. 4D.) RNA was extracted and mRNA expression was measured by Real-time PCR.\n(§3) To establish a 3T3-L1 or Hepa1c1c7 cell line that have PPARα stably overexpressed, mouse PPARα cDNA was ligated into the NotI/BamHI sites of the pQXCIP vector and transformed in DH5α cells (Invitrogen, Carlsbad, Calif.). […] The supernatants were harvested, and the cell debris was removed by centrifugation at 2000×g. The supernatant was used to infect 3T3-L1 or Hepa1c1c7 cells after addition of polybrene ([…], Sigma Chemical Co., St. Louis, Mo.) to establish cell lines with stable overexpression of a PPARα overexpressing (3T3-PPARα) or expressing empty vector (3T3-Vector). After 72 h the cells were selected with puromycin, and positive cells were confirmed by Western blotting and used for experiments."}, "3T3-L1 cells": {"tested_on": "3T3-L1 cells", "assay": "Adipogenesis assay (Nile Red lipid accumulation, Real-time PCR)", "format": "cell-based, mouse", "quoted_text": "Total RNA was read on a NanoDrop 2000® spectrophotometer (Thermo Fisher Scientific, Wilmington, Del.), and cDNA was synthesized using High Capacity cDNA Reverse Transcription Kit (Applied Biosystems). PCR amplification of the cDNA was performed by quantitative real-time PCR using TrueAmp® SYBR Green qPCR SuperMix (Advance Bioscience). The thermocycling protocol consisted of 10 min at 95° C., 40 cycles of 15 sec at 95° C., 30 sec at 60° C., and 20 sec at 72° C., and finished with a melting curve ranging from 60-95° C. to allow distinction of specific products. Normalization was performed in separate reactions with primers to GAPDH.\nAdipogenic differentiation of 3T3-L1 cells was achieved by treatment with 1 μM Dex, 830 nM insulin, and 100 μM isobutylmethylxanthine in 10% FBS until Day 9. Upon differentiation, cells were stained with Nile Red to visualize lipid content, and densitometry was used as a direct measure. Total RNA extracted from Nile Red stained cells was used for real time PCR analysis."}, "PPARα [2]": {"target": "T1, PPARα (Mus musculus, UniProt P23204)", "T1 sequence (P23204 1-468)": "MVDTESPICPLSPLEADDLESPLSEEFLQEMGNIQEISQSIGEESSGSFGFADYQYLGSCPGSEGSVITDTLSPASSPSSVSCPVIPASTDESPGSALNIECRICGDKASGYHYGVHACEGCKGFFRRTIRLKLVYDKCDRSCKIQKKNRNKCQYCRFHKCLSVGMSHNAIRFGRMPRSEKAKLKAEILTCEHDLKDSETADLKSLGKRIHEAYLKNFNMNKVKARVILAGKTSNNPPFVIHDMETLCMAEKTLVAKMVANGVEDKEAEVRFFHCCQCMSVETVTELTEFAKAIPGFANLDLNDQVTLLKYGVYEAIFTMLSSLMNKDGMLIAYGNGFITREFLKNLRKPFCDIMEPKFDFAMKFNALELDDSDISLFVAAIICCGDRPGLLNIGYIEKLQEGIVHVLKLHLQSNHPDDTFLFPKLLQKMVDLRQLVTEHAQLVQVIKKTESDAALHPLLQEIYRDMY", "assay": "Pull-down assay with ligand-coupled sepharose resins, PPARα OE 3T3-L1 cells", "format": "binding", "parameters": "expressed in transfected cells", "settings": "ligand coupled to sepharose beads", "procedure": "The ligand coupling was performed according to the GE Healthcare instructions (71-7097-00 AE, pg. 6) for EAH Sepharose™ 4B. The procedure in the online instructions was titled “A general ligand coupling procedure”. […] Resin coupling procedures were conducted in a DMF/H2O solvent system (1:1) with a final concentration of 0.1 M EDC*HCl. […] Upon completion, resins were washed according to the GE instructions (3 alternating washings with 0.5 M NaCl containing 0.1 M sodium acetate pH 4.5 and 0.5 M NaCl containing 0.1 M Tris pH 8) over a 10-15 μm fritted filter. As an additional step to the GE instructions, matrix-coupled bilirubin and biliverdin coupled preparations were further washed with 50% DMSO/H2O solutions (250 mL) to remove any unreacted ligand. The filtrate was nearly colorless after this step. […] The resins were suspended in 20% EtOH/H2O (15 mL) and stored at 4° C. for 16 h in capped sample vials. The ligand-coupled resin settles overnight and the supernatant was carefully decanted until minimal amounts of 20% EtOH/H2O covered the resin. […]\nWhole cell extracts (WCE) were prepared by freezing the cell pellet overnight at −80° C. […] Immunoreactivity was visualized and quantified by infrared scanning in the Odyssey system (LI-COR Biosciences). […]"}, "[3]": {"tested_on": "hepa1c1c7 mouse hepatocytes overexpressing PPARα", "assay": "PPARα controlled genes in hepa1c1c7 liver cells (Real-time PCR)", "format": "cell-based", "settings": "50 μM, 24 hours, dialyzed fatty acid-free media", "procedure": "as §2, §3"}, "PPARα [4]": {"target": "T1, PPARα", "assay": "Promoter reporter assay (PPRE-3tk-luc luciferase) in Cos7 cells", "settings": "for level of PPARα activation compared among the ligands / PPARα activity at the minimal luciferase promoter: PPARα overexpressed, 50 μM each; for level of PPARα activation compared among the ligands: 24 hours (FIG. 3C); for PPARα activity at the minimal luciferase promoter: vs Veh (FIG. 3C)", "quoted_text": "Cos7 cells were transiently transfected with a minimal PPARα responsive promoter luciferase construct (PPRE-3tk-luc) for 24 hours along with an empty vector and a vector containing PPARα cDNA (overexpression).\nThe mouse 3T3-L1 preadipocyte, Hepa1c1c7, and Cos7 green kidney monkey cells were routinely cultured and maintained in Dulbecco's Modified Eagles's Medium (DMEM) containing 10% bovine calf serum or FBS with 1% penicillin-streptomycin.\nA PPARα minimal promoter PPRE-3tk-luc activity was measured by luciferase, and pRL-CMV Renilla reporter for normalization to transfection efficiency. Transient transfection was achieved using GeneFect® (Alkali Scientific, Inc.). Twenty-four-hour post-transfected cells were lysed and the luciferase assay was performed using the Promega® dual luciferase assay system (Promega, Madison, Wis.)."}, "[5]": {"assay": "Stability on heating during resin preparation", "format": "physicochemical", "settings": "75° C. for 90 min in DMF/H2O; judged by decrease in PPARα binding of resin", "description": "as §1"}, "[6]": {"tested_on": "PPARα KO mice on a high fat diet", "assay": "High fat diet PPARα KO mice treated for seven days", "settings": "bilirubin 30 mg/kg or fenofibrate 90 mg/kg i.p.", "quoted_text": "(§4) With respect to animals, the procedures and protocols conform to the National Institutes of Health Guide for the Care and Use of Laboratory Animals, and were approved by the Institutional Animal Care and Use Committee of the University of Mississippi Medical Center. Tests were performed on 16 week old male PPARα knockout and wild-type mice on a C57 genetic background purchased from Jackson Labs (Bar Harbor, Me.). […] After this time, mice were switched to a 60% high fat diet (diet # D12492, Research Diets, Inc., New Brunswick, N.J.) for an additional 6 weeks. […] Control mice were not treated. Mice were euthanized on the last day of the test, at which time all organs were collected and weighed.\n(§5) Following an 8 hour fast, a blood sample was obtained via orbital sinus under isoflorane anesthesia.\n(§6) Plasma samples from individual mice were measured in duplicate and then averaged. The concentrations are expressed as mg/dL Plasma alanine aminotransferase (ALT) and aspartate aminotransferase (AST) levels were determined in 50 μL of plasma by colorimetric assay (Cobas, Rochce Diagnostics, Indianapolis, Ind.). Assays were performed according to the manufacturer's guidelines and samples were read on a Roche Cobas c501 analyzer. The concentrations were expressed as units/L."}, "[7]": {"tested_on": "PPARα KO mice on a high fat diet", "settings": "mouse, in vivo", "quoted_text": "as §4, §5, §6"}, "[8]": {"tested_on": "wild-type mice on a high fat diet", "settings": "mouse, in vivo", "quoted_text": "as §4, §5, §6"}, "[9]": {"settings": "10 μM, differentiated 3T3-L1 adipocytes"}},
  "data": [
    {"smiles": "Cc1cccc(Nc2cc(Cl)nc(SCC(=O)O)n2)c1C", "note": "[WY 14,643]", "values": [
      {"measurement": "solubility in organic solvents", "setting": "[1]", "result": "readily soluble"},
      {"measurement": "CD36 mRNA expression", "setting": "PPARα OE 3T3-L1 cells", "result": "strongly induced expression"},
      {"measurement": "reduction of lipid accumulation", "setting": "3T3-L1 cells; 10 μM over the 9 day protocol", "result": 56, "unit": "%"},
      {"measurement": "expression of FAS", "setting": "3T3-L1 cells; [9]", "result": "significantly (p<0.001) decreased expression of FAS"},
      {"measurement": "reduction of lipid accumulation", "setting": "3T3-L1 cells; 50 μM over the 9 day protocol", "result": 33, "unit": "%"},
      {"measurement": "direct binding to PPARα (pull-down)", "setting": "PPARα [2]", "result": "can directly bind"},
      {"measurement": "CD36 mRNA", "setting": "[3]", "result": "responded"},
      {"measurement": "CYP4A10 mRNA", "setting": "[3]", "result": "responded"},
      {"measurement": "FGF21 mRNA response", "setting": "[3]", "result": "not"},
      {"measurement": "Pyruvate dehydrogenase kinase 4 (PDK4) expression", "setting": "[3]", "result": "significantly (p<0.05) higher"},
      {"measurement": "angiopoietin-like 4 (ANGPTL4) expression", "setting": "[3]", "result": "significantly increased"},
      {"measurement": "heme oxygenase-1 (HO-1) mRNA response", "setting": "[3]", "result": "not"},
      {"measurement": "induction of PPARα activity", "setting": "PPARα [4]; Cos7 cells transfected with PPARα and RXR, 50 μM, 24 hrs (FIG. 12)", "result": 2.1, "unit": "fold"},
      {"measurement": "level of PPARα activation compared among the ligands", "setting": "PPARα [4]; Cos7 cells", "result": "higher than biliverdin or fenofibrate"},
      {"measurement": "PPARα activity at the minimal luciferase promoter", "setting": "PPARα [4]; Cos7 cells, 24 hours", "result": "significantly (p<0.0001) increased"}
    ]},
    {"smiles": "C=CC1=C(C)/C(=C/C2=NC(=C\\c3[nH]c(/C=C4\\NC(=O)C(C)=C4C=C)c(C)c3CCC(=O)O)/C(CCC(=O)O)=C2C)NC1=O", "note": "[biliverdin]", "values": [
      {"measurement": "solubility in organic solvents", "setting": "[1]", "result": "readily soluble"},
      {"measurement": "water solubility", "setting": "[1]", "result": "greater water solubility than bilirubin"},
      {"measurement": "CD36 mRNA expression", "setting": "PPARα OE 3T3-L1 cells", "result": "significantly (p<0.05) increased CD36 mRNA expression more than fenofibrate"},
      {"measurement": "CPT1 expression", "setting": "PPARα OE 3T3-L1 cells", "result": "increased CPT1 and FGF21 expression more than WY 14,643 treatment"},
      {"measurement": "FGF21 mRNA expression", "setting": "PPARα OE 3T3-L1 cells", "result": "significantly (p<0.05) enhanced FGF21 mRNA higher than fenofibrate"},
      {"measurement": "reduction of lipid accumulation", "setting": "3T3-L1 cells; 10 μM over the 9 day protocol", "result": 50, "unit": "%"},
      {"measurement": "reduction of lipid accumulation", "setting": "3T3-L1 cells; 10 μM over the 9 day protocol, listed as Biliverdin", "result": 49, "unit": "%"},
      {"measurement": "expression of CPT1", "setting": "3T3-L1 cells; [9]", "result": "significantly (p<0.001) increased expression of CPT1"},
      {"measurement": "expression of FAS", "setting": "3T3-L1 cells; [9]", "result": "significantly (p<0.001) decreased expression of FAS"},
      {"measurement": "reduction of lipid accumulation", "setting": "3T3-L1 cells; 50 μM over the 9 day protocol", "result": 91, "unit": "%"},
      {"measurement": "CD36 mRNA", "setting": "[3]", "result": "not"},
      {"measurement": "CYP4A10 mRNA", "setting": "[3]", "result": "not"},
      {"measurement": "FGF21 mRNA response", "setting": "[3]", "result": "increased"},
      {"measurement": "Pyruvate dehydrogenase kinase 4 (PDK4) expression", "setting": "[3]", "result": "increased with all the ligands"},
      {"measurement": "angiopoietin-like 4 (ANGPTL4) expression", "setting": "[3]", "result": "significantly increased"},
      {"measurement": "heme oxygenase-1 (HO-1) mRNA response", "setting": "[3]", "result": "increased"},
      {"measurement": "level of PPARα activation compared among the ligands", "setting": "PPARα [4]; Cos7 cells", "result": "same level of PPARα activation"},
      {"measurement": "PPARα activity at the minimal luciferase promoter", "setting": "PPARα [4]; Cos7 cells, 24 hours", "result": "significantly (p<0.0001) increased"},
      {"measurement": "PPARα activity (PPRE-3tk-luc)", "setting": "PPARα [4]; Cos7 cells, PPARα overexpression, dose dependence, 24 hours, vs 0 μM", "result": "significantly (p<0.05) increased"},
      {"measurement": "PPRE-3tk-luc promoter activation in the absence of PPARα", "setting": "PPARα [4]; Cos7 cells, empty vector, dose dependence, 24 hours", "result": "did not activate"}
    ]},
    {"smiles": "C=CC1=C(C)/C(=C/c2[nH]c(Cc3[nH]c(/C=C4\\NC(=O)C(C)=C4C=C)c(C)c3CCC(=O)O)c(CCC(=O)O)c2C)NC1=O", "note": "[bilirubin]", "values": [
      {"measurement": "solubility in organic solvents", "setting": "[1]", "result": "limited solubility"},
      {"measurement": "stability with heating", "setting": "[5]", "result": "less stable with heating"},
      {"measurement": "body weight", "setting": "[6]", "result": "no effect"},
      {"measurement": "alanine aminotransferase (ALT)", "setting": "[7]", "result": "significantly (p<0.05) decreased"},
      {"measurement": "aspartate aminotransferase (AST)", "setting": "[7]", "result": "significantly (p<0.05) decreased"},
      {"measurement": "alanine aminotransferase (ALT)", "setting": "[8]", "result": "no change"},
      {"measurement": "aspartate aminotransferase (AST)", "setting": "[8]", "result": "no change"}
    ]},
    {"smiles": "CC(C)OC(=O)C(C)(C)Oc1ccc(C(=O)c2ccc(Cl)cc2)cc1", "note": "[fenofibrate]", "values": [
      {"measurement": "reduction of lipid accumulation", "setting": "3T3-L1 cells; 10 μM over the 9 day protocol", "result": 48, "unit": "%"},
      {"measurement": "reduction of lipid accumulation", "setting": "3T3-L1 cells; 50 μM over the 9 day protocol", "result": 51, "unit": "%"}
    ]}
  ]
}
